{"source": "BindingDB's records for patent US20240109853", "about": "(Shanghai Yao Yuan Biotechnology Co., 2024)", "note": "Several values for one entry are separate records, joined by “and”; a condition that tells them apart may be missing. Identical values can stand only once.", "data": [{"biological_target": "Alpha-protein kinase 1 (Homo sapiens, UniProt Q96QP1)", "sequence (Q96QP1 whole entry)": "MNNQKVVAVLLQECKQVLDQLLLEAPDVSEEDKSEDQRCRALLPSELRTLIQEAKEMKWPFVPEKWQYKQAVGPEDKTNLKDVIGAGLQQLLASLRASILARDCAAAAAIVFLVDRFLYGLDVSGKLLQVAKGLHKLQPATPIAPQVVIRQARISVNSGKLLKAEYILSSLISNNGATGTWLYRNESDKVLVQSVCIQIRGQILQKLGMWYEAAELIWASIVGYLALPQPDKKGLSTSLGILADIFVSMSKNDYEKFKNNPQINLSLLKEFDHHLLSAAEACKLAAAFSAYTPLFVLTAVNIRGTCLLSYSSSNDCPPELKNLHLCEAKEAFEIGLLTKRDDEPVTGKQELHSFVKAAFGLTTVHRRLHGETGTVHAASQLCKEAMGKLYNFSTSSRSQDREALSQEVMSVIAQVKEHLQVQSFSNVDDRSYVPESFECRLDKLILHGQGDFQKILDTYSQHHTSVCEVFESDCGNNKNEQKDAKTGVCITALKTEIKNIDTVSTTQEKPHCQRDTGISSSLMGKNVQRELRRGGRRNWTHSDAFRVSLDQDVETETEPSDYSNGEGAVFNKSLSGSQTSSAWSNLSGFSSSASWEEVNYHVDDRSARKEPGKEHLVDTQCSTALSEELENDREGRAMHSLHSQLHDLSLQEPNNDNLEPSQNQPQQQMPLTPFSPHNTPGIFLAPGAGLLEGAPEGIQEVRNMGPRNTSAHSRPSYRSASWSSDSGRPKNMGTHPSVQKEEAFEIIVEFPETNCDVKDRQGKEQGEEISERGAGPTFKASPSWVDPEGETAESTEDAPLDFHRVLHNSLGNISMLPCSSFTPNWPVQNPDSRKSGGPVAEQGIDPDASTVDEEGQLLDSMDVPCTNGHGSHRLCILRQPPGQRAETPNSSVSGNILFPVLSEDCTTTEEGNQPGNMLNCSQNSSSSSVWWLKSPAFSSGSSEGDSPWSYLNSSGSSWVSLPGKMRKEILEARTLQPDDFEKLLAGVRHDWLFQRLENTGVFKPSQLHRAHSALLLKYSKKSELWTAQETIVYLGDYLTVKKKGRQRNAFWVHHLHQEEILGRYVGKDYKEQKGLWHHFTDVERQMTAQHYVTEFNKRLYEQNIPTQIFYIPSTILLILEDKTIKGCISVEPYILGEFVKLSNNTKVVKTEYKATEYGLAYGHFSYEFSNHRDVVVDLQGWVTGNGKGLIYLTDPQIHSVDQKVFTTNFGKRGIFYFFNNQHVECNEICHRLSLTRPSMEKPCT", "experiment": "ALPK1 In Vitro Kinase Assay", "procedure": "ALPK1 kinase activity was measured in an in vitro assay using ADP-Heptose as the ALPK1 ligand and activator of its kinase activity and TIFA protein as the ALPK1 phosphorylation substrate. Since phosphorylated TIFA proteins oligomerize, Homogeneous Time-Resolved Fluorescence (HTRF) was used to measure protein: protein interaction between HA-tagged TIFA proteins as an indicator of TIFA phosphorylation. In brief, dose-response studies were performed with […] in 384-well assay plates. Each well contained 0.1 mg TIFA, ALPK1 (2 nM final concentration in reaction mixture) and kinase buffer (100 mM of HEPES pH 7.4, 4 mM DTT, 40 mM MgCl2, 20 mM of β-Glycerol phosphate disodium salt, 0.4 mM of Na3VO4, 0.16 mg/mL). Titrations of the test compounds were prepared in dimethylsulphoxide (DMSO). The reaction was initiated by addition of ATP and ADP-Heptose.", "values": [{"smiles": "CC(C)(c1ccc(Br)cc1)c1csc(NC(=O)NCc2ccc(N3CCNCC3)c(Br)c2)n1", "note": "[US20240109853, Compound A097]", "IC50": "87 nM"}, {"smiles": "COc1ccc(C(C)(C)c2csc(NC(=O)NCc3cc(F)c(C4CCNCC4)c(F)c3)n2)cc1", "note": "[US20240109853, Compound A151]", "IC50": "43 nM"}, {"smiles": "CC(C)(c1ccc(Br)cc1)c1csc(NC(=O)NCc2ccc(C3CCNCC3)c(F)c2)n1", "note": "[US20240109853, Compound A222]", "IC50": "56 nM"}, {"smiles": "C#C[C@@](C)(c1ccc(Cl)cc1)c1nc(NC(=O)NCCO)sc1Cl", "note": "[US20240109853, Compound A247]", "IC50": "408 nM"}, {"smiles": "C#C[C@](C)(c1ccc(Cl)cc1)c1nc(NC(=O)NCCO)sc1Cl", "note": "[US20240109853, Compound A248]", "IC50": "1290 nM"}, {"smiles": "C#CC(C)(c1ccc(Cl)cc1)c1csc(NC(=O)N2CC(N)C2)n1", "note": "(configuration not stated) [US20240109853, Compound A275]", "IC50": "503 nM and 246 nM"}, {"smiles": "C#CC(C)(c1ccc(Cl)cc1)c1csc(NC(=N)N)n1", "note": "(configuration not stated) [US20240109853, Compound A276]", "IC50": "345 nM"}, {"smiles": "C#C[C@@](C)(c1ccc(Cl)cc1)c1csc(NC(=O)NC(C)CO)n1", "note": "(some centres not stated) [US20240109853, Compound A312]", "IC50": "545 nM and 614 nM"}, {"smiles": "C#C[C@](C)(c1ccc(Cl)cc1)c1csc(NC(=O)NC(C)CO)n1", "note": "(some centres not stated) [US20240109853, Compound A314]", "IC50": "261 nM and 81 nM"}, {"smiles": "C#C[C@](C)(c1ccc(Cl)cc1)c1csc(NC(=O)NCC(C)O)n1", "note": "(some centres not stated) [US20240109853, Compound A316]", "IC50": "421 nM and 534 nM"}, {"smiles": "C#C[C@@](C)(c1ccc(Cl)cc1)c1csc(NC(=O)NCC(C)O)n1", "note": "(some centres not stated) [US20240109853, Compound A317]", "IC50": "85 nM and 156 nM"}, {"smiles": "COc1ccc(C(C)(C)c2csc(NC(=O)c3ccc(N4CC5CC(C4)N5)cc3)n2)cc1", "note": "[US20240109853, Compound B048]", "IC50": "73 nM"}]}]}
